The results in this text go back to patent US12478586B2, “Small molecular drug-loaded polymer vesicle, preparation method therefor and use thereof” (SOOCHOW UNIVERSITY, priority 2020, dated 2025).

Assay [1] concerns LP-1-Luc multiple myeloma mice. The assay can be described thus: Anti-tumor effect in orthotopic LP-1-Luc multiple myeloma mice. It counts as in vivo. The method, then: Mice were simultaneously weighed.
To investigate the anti-tumor effect of Dar-Ps-VCR in […] LP-1-Luc multiple myeloma mice, treatment experiments were initiated when the bioluminescence intensity reached 1.2×10^6 p/sec/cm^2/sr on day 10 post-inoculation. There were two dosing regimens that maintained the same total VCR administration: one with a VCR dose of 0.25 mg/kg, one injection given on 4 days for a total of 4 injections, denoted as Dar-Ps-VCR (0.25 mg VCR equiv./kg, Q4d); and the other with a VCR dose of 0.50 mg/kg, one injection given on 8 days for a total of 2 injections, denoted as Dar-Ps-VCR (0.50 mg VCR equiv./kg, Q8d). Based on the first dosing regimen, equal VCR doses of Ps-VCR and free VCR, equal equivalents of Dar-Ps, and PBS were used as controls. Each treatment group consisted of 10 […] mice, of which 4 were used for bioluminescence imaging and 6 were used to monitor body weight and observe survival. […] At the end of drug administration, the tumors of mice in the non-targeted Ps-VCR and free VCR groups began to recur, and Luc bioluminescence signals increased rapidly, i.e., 157- and 53-fold by day 39, respectively.

Assay [2] has as its system LP-1 multiple myeloma cells. The assay can be described thus: CCK-8 cytotoxicity. It counts as cell-based. To be noted: LP-1 cells. On the procedure:
The in vitro anti-tumor activity of Dar-Ps-VCR against LP-1 multiple myeloma cells was determined using a CCK-8 kit, with MV4-11 cells as a control. LP-1 cells were first spread in 96-well plates (15,000/well) and placed in an incubator at 37° C. with 5% CO2 for 24 h. After that, 20 μL of Dar-Ps-VCR, Ps-VCR and free VCR containing different Dar surface densities were added to each well, and the final concentrations of VCR in the wells were 0.001, 0.01, 0.05, 0.1, 0.5, 1 and 10 ng/mL. After incubation at 37° C. for 48 h, 10 μL of CCK-8 solution was added to each well to continue the incubation for 4 h. Finally, its absorbance value at 492 nm was tested by an enzyme marker. Cell viability was calculated by the ratio of the absorbance value of the experimental group to the absorbance value of the cells incubated with the addition of PBS, and the experiment was performed in parallel for four groups (mean±SD, […]).

A further assay concerns LP-1 cells. In words: AnnexinV-FITC/PI apoptosis by flow cytometry. The assay is classed as cell-based. The conditions noted are these: VCR 0.5 ng/mL, 48 h. (In general: A flow cytometer gives signals particle by particle.)

Structures can show the parent of a compound that is named as a salt.

Protocol for LP-1 cells: LP-1 cells were first spread in 6-well plates at a density of 2×10^5 cells/well and incubated in the incubator for 24 h. After 24 h, 200 μL of Dar-Ps-VCR, Ps-VCR, and free VCR were added (the in-well concentration of VCR was 0.5 ng/mL), and the cells with only PBS were used as a control. After incubation in the incubator for 48 h, LP-1 cells were collected by centrifugation (800 rpm, 5 min) and washed twice with ice PBS, and finally 200 μL of Binding buffer was added to each sample to resuspend the cells (the cell density was approximately 10^6 cells/mL). After blowing uniformly, 100 μL was taken into the flow tube and 5 μL of AnnexinV-FITC and 10 μL of PI solution were added sequentially, and the cells were stained at room temperature and protected from light for 15 min, then 400 μL of PBS was added and mixed uniformly, and measured by flow cytometry within 1 h. The cells were then stained with PBS for 15 min at room temperature and protected from light for 15 min. Among them, the samples in the PBS group that were treated in a 50° C. water bath for 5 min and fixed with 4% paraformaldehyde for 5 min were used as the early apoptosis group and the late apoptosis group, respectively, and stained for 15 min by adding 5 μL of AnnexinV-FITC solution and 10 μL of PI solution, respectively.

In general, IC50 refers to the concentration at which inhibition is half-maximal. Regarding `CC[C@]1(O)C[C@H]2CN(CCc3c([nH]c4ccccc34)[C@@](C(=O)OC)(c3cc4c(cc3OC)N(C=O)[C@H]3[C@@](O)(C(=O)OC)[C@H](OC(C)=O)[C@]5(CC)C=CCN6CC[C@]43[C@@H]65)C2)C1` [free VCR, vincristine sulfate], in assay [1] (0.25 mg VCR equiv./kg, Q4d (Dar-Ps: equal equivalents)), the median survival worked out at 52 days. For the same molecule, the “increase of Luc bioluminescence signal” value in assay [1] (by day 39, 0.25 mg VCR equiv./kg, Q4d) is given as 53 fold. In addition, the “Luc signal during the administration treatment period” value in assay [1] (days 10-22) is “no significant increase or even a slight decrease in Luc signal”. Moreover, the half-maximal inhibitory concentration (IC50) in assay [2] (Homo sapiens, 48 h, VCR concentration, read-out: LC50 (IC50)) turned out to be 1.38 ng/mL. Besides, the apoptosis with LP-1 cells is listed as 31.4%.
For the molecule “free Dar: CD38-targeting monoclonal antibody daratumumab (Dar)”, in assay [2] (Dar concentration 9 μg/mL), the cell survival is reported as around 100%.
